Converted amounts (≈) assume the structure as drawn. “And” between values parts separate entries of the source, which are not always exact repeats. Equal values may be shown once.
Assays:
[1] = stability in aqueous solution followed by UV; type: physicochemical; set-up: unit not given here; settings: UV, aqueous solution
Method: To a solution of penem 3 (2.4 g, 6.89 mmoles) in tetrahydrofuran-ether-water mixture (1:1:1, 165 ml) was added 30% palladium on diatomaceous earth (4.8 g). The reaction mixture was hydrogenated under 45 p.s.i. at 23° C. for 2.5 h and filtered over celite pad. The filtrate and washings were combined, washed twice with ether, centrifugated and filtered several times to give a clear solution which was lyophilized; 0.622 g, 45%. The crystallization of the compound was induced by the addition of water (0.8 ml); the suspension was centrifuged and the water was removed leaving an orange solid. This solid was washed twice with water and a slightly yellow solid was obtained after drying: […], 19.8%. UV λmax^H.sbsp.2^O : 307 (ε=4318) and 257 (ε=2650). Some crude starting material (1.2 g, 50%) was recovered. The compound (50 mg) can also be purified by column chromatography [Sephadex G10, column size: 1.6×100 cm, flow rate: 10 ml/h, eluent: distilled water, fraction volume: 1.5 ml, detector: refractive index]. UV λmax^H.sbsp.2^O 307 (ε=3597) and 255 (ε=2424).
The stability of the compound in aqueous solution was checked by:
A sample of compound 4 was kept at 23° C. for 3 days and the UV was taken: UV λmax^H.sbsp.2^O : 307 (ε=3055) and 255 (ε=2008).
To a solution of ester 6 (200 mg, 0.5 mmole) in tetrahydrofuran (10 ml) was added ether (10 ml), water (10 ml) and 30% palladium on diatomaceous earth (200 mg). The reaction mixture was hydrogenated in a Parr apparatus under 35 p.s.i. at 25° C. for 2 h 30 min and filtered over a celite pad. The filtrate was washed twice with ether and the aqueous solution was lyophilized, giving a yellow powder which was purified by column chromatography [Sephadex G-10, bed dimensions: 100×1.6 cm, flow rate: 12 ml/h, eluent: distilled water, fraction volume: 1.5 ml detector: refractive index]. The right fractions were combined and lyophilized to give a white powder (10 mg, 8.8%). UV λmax^H.sbsp.2 O 301 (ε=4930), 258 (ε=3290). IR (KBr) cm^-1 :1770 (c=o of β-lactam) and 1580 [drawing 587] The stability of compound 7 in aqueous solution was followed by UV; after 6 h: 301 (4795) and 258 (3105) and after 72 h: 301 (4565) and 258 (3150). […]

[2] = tested on: Str. pneumoniae A-9585; experiment: MIC, tube dilution, Streptococcus pneumoniae A9585; type: cell-based; settings: Str. pneumoniae A9585; overnight 37° C., Nutrient Broth
Excerpt: (§1) Representative compounds of the present invention were subjected to in vitro antibiotic screening against a variety of microorganisms.

[3] = tested on: Str. pyogenes A-9604; experiment: MIC, tube dilution, Streptococcus pyogenes A9604; type: cell-based; settings: Str. pyogenes A9604; overnight 37° C., Nutrient Broth
Excerpt: as §1

[4] = tested on: Staph. aureus A-9537; experiment: MIC, tube dilution, Staphylococcus aureus A9537; type: cell-based; settings: Staph. aureus A9537; overnight 37° C., Nutrient Broth
Excerpt: as §1

[5] = tested on: Staph. aureus A-9537 and 50% serum; experiment: MIC, tube dilution, Staph. aureus A9537 + 50% serum; type: cell-based, Staphylococcus aureus; settings: overnight 37° C.
Excerpt: as §1

[6] = tested on: Staph. aureus (Pen-Res) A-9606; experiment: MIC, tube dilution, Staphylococcus aureus A9606 (Pen-Res); type: cell-based; settings: Staph. aureus A9606 (Pen-Res), overnight 37° C.
Excerpt: as §1

[7] = tested on: Staph. aureus (Meth-Res) A-15097; experiment: MIC, tube dilution, Staphylococcus aureus A15097 (Meth-Res); type: cell-based; settings: Staph. aureus A15097 (Meth-Res), overnight 37° C.; for MIC: Staphylococcus aureus, read-out: Minimum Inhibitory Concentration (M.I.C.)
Excerpt: as §1

[8] = tested on: Str. faecalis A-20688; experiment: MIC, tube dilution, Streptococcus faecalis A20688; type: cell-based; settings: overnight 37° C.; for Minimum Inhibitory Concentration (M.I.C.): Str. faecalis A20688
Excerpt: as §1

[9] = tested on: E. coli A-15119; experiment: MIC, tube dilution, Escherichia coli A15119; type: cell-based; settings: overnight 37° C.
Excerpt: as §1

[10] = tested on: E. coli A-20341-1; experiment: MIC, tube dilution, Escherichia coli A20341-1; type: cell-based; settings: overnight 37° C.; for MIC: Escherichia coli, A203411, E. coli A20341-1, read-out: Minimum Inhibitory Concentration (M.I.C.)
Excerpt: as §1

[11] = tested on: K. pneumoniae A-15130; experiment: MIC, tube dilution, Klebsiella pneumoniae A15130; type: cell-based; settings: overnight 37° C.
Excerpt: as §1

[12] = tested on: Klebsiella species A20468; experiment: MIC, tube dilution, Klebsiella species A20468; type: cell-based; settings: Klebsiella species (K. pneumoniae) A20468, overnight 37° C.; for MIC: read-out: Minimum Inhibitory Concentration (M.I.C.)
Excerpt: as §1

[13] = tested on: Pr. mirabilis A-9900; experiment: MIC, tube dilution, Proteus mirabilis A9900; type: cell-based; settings: Proteus mirabilis A9900; overnight 37° C.
Excerpt: as §1

[14] = tested on: Pr. vulgaris A-9716; experiment: MIC, tube dilution, Proteus vulgaris / Proteus mirabilis A9716; type: cell-based, Proteus vulgaris (name changed to Proteus mirabilis); settings: Proteus vulgaris / Proteus mirabilis A9716; overnight 37° C.
Excerpt: as §1

[15] = tested on: Pr. morganii A-15153; experiment: MIC, tube dilution, Proteus morganii A15153; type: cell-based; settings: Proteus morganii A15153; overnight 37° C.
Excerpt: as §1

[16] = tested on: Ser. marcescens A-20019; experiment: MIC, tube dilution, Serratia marcescens A20019; type: cell-based; settings: Serratia marcescens A20019; overnight 37° C.
Excerpt: as §1

[17] = tested on: Ent. cloacae A-9659; experiment: MIC, tube dilution, Enterobacter cloacae A9659; type: cell-based; settings: Enterobacter cloacae A9659; overnight 37° C.
Excerpt: as §1

[18] = tested on: Ent. cloacae A-9656; experiment: MIC, tube dilution, Enterobacter cloacae A9656; type: cell-based; settings: Enterobacter cloacae A9656; overnight 37° C.
Excerpt: as §1

[19] = tested on: Ps. aeruginosa A-9843A; experiment: MIC, tube dilution, Pseudomonas aeruginosa A9843A; type: cell-based; settings: overnight 37° C.
Excerpt: as §1

[20] = tested on: Ps. aeruginosa A-21213; experiment: MIC, tube dilution, Pseudomonas aeruginosa A21213; type: cell-based; settings: overnight 37° C.; for MIC: Pseudomonas aeruginosa, A21213, Pseudomonas aeruginosa A21213, read-out: Minimum Inhibitory Concentration (M.I.C.)
Excerpt: as §1

[21] = tested on: Proteus rettgeri A21203; experiment: MIC, tube dilution, Proteus rettgeri A21203; type: cell-based; settings: Proteus rettgeri A21203; overnight 37° C.
Excerpt: as §1

[22] = tested on: Proteus vulgaris A9555; experiment: MIC, tube dilution, Proteus vulgaris (mirabilis) A9555; type: cell-based; settings: overnight 37° C., read-out: Minimum Inhibitory Concentration (M.I.C.)
Excerpt: as §1

[23] = tested on: Proteus vulgaris A21559; experiment: MIC, tube dilution, Proteus vulgaris A21559; type: cell-based; settings: Proteus vulgaris A21559; overnight 37° C.
Excerpt: as §1

[24] = tested on: E. coli A15119; experiment: In vivo protection of mice, lethal infection with E. coli A15119; settings: Escherichia coli, IM, 2 treatments, 7.8 × 10^5 organisms, read-out: PD50
Method: (§2) Representative compounds of the present invention were also tested in vivo in mice and their PD50 (dose of compound in mg/kg required to protect 50% of the treated mice against an otherwise lethal infection of a micro-organism) values determined with respect to the test organisms shown below.

[25] = tested on: S. aureus A9537; experiment: In vivo protection of mice, lethal infection with S. aureus A9537; settings: IM, 2 treatments, 9.1 × 10^5 organisms; listed as Ex. 98 (isomer A)
Method: as §2

Row | SMILES | Minimum Inhibitory Concentration (M.I.C.) [2] | Minimum Inhibitory Concentration (M.I.C.) [3] | Minimum Inhibitory Concentration (M.I.C.) [4] | Minimum Inhibitory Concentration (M.I.C.) [5] | MIC [7] [µg/mL] | Minimum Inhibitory Concentration (M.I.C.) [8] [µg/mL] | MIC [10] [µg/mL] | MIC [12] [µg/mL] | Minimum Inhibitory Concentration (M.I.C.) [13] | Minimum Inhibitory Concentration (M.I.C.) [15] | Minimum Inhibitory Concentration (M.I.C.) [16] | Minimum Inhibitory Concentration (M.I.C.) [17] [µg/mL] | Minimum Inhibitory Concentration (M.I.C.) [18] [µg/mL] | MIC [20] [µg/mL] | Minimum Inhibitory Concentration (M.I.C.) [21] | also measured
1 | NCCCC1=C(C(=O)O)N2C(=O)CC2S1 (stereo not shown) [Example 51, 2-(γ-Aminopropyl)penem-3-carboxylic Acid] | .25 µg/mL | 2 µg/mL and 1 µg/mL | 2 µg/mL and 1 µg/mL | 63 µg/mL and > 32 µg/mL | 63 (≈ 276 µM) | 125 | > 63 | > 63 | 16 µg/mL and 8 µg/mL | 32 µg/mL and 16 µg/mL | 32 µg/mL and 16 µg/mL | 16 | 32 | 63 (≈ 276 µM) | 16 µg/mL and 8 µg/mL | ε at 258 in aqueous solution (stability) ([1]; after 6 h): 3105; ε at 301 in aqueous solution (stability) ([1]; after 6 h): 4795; ε at 258 in aqueous solution (stability) ([1]; after 72 h): 3150; ε at 301 in aqueous solution (stability) ([1]; after 72 h): 4565; Minimum Inhibitory Concentration (M.I.C.) [6]: 63 µg/mL and 32 µg/mL; Minimum Inhibitory Concentration (M.I.C.) [7]: 125 µg/mL; MIC ([8]; Enterococcus faecalis, A20688, Str. faecalis A20688, read-out: Minimum Inhibitory Concentration (M.I.C.)): 63 µg/mL (≈ 276 µM); Minimum Inhibitory Concentration (M.I.C.) ([9]; E. coli A15119): 16 µg/mL and 8 µg/mL; Minimum Inhibitory Concentration (M.I.C.) ([10]; E. coli A20341-1): 125 µg/mL; Minimum Inhibitory Concentration (M.I.C.) ([11]; K. pneumoniae A15130): 32 µg/mL; Minimum Inhibitory Concentration (M.I.C.) [12]: > 125 µg/mL; Minimum Inhibitory Concentration (M.I.C.) [14]: 16 µg/mL; Minimum Inhibitory Concentration (M.I.C.) ([19]; Pseudomonas aeruginosa A9843A): 125 µg/mL and 63 µg/mL; Minimum Inhibitory Concentration (M.I.C.) ([20]; Pseudomonas aeruginosa A21213): 125 µg/mL; MIC [22]: 63 µg/mL (≈ 276 µM)
2 | NC1CCC(C2=C(C(=O)O)N3C(=O)C[C@H]3S2)C1 (single isomer, unassigned) [98 isomer A, 2-(3-Aminocyclopentyl)-penem-3-carboxylic acid] | .004 µg/mL | .004 µg/mL | .03 µg/mL | .13 µg/mL | > 63 | 4 | 16 (≈ 62.9 µM) | > 63 | 1 µg/mL | 4 µg/mL | 2 µg/mL | 4 | 2 | > 63 | 1 µg/mL | MIC ([6]; Staphylococcus aureus, read-out: Minimum Inhibitory Concentration (M.I.C.)): 32 µg/mL (≈ 126 µM); MIC ([9]; Escherichia coli, A15119, E. coli A15119, read-out: Minimum Inhibitory Concentration (M.I.C.)): 1 µg/mL (≈ 3.93 µM); MIC ([11]; Klebsiella pneumoniae, A15130, K. pneumoniae A15130, read-out: Minimum Inhibitory Concentration (M.I.C.)): 4 µg/mL (≈ 15.7 µM); MIC ([19]; Pseudomonas aeruginosa, A9843A, read-out: Minimum Inhibitory Concentration (M.I.C.), Pseudomonas aeruginosa A9843A): > 63 µg/mL; Minimum Inhibitory Concentration (M.I.C.) [23]: 2 µg/mL; ED50 [24]: 17.4 mg/kg; PD50 [25]: 0.04 mg/kg/treatment

Source: patent US4272437A, “Antibacterial agents, and 4-thio azetidinone intermediates” (priority 1979, dated 1981)
